This is an account of results in ChEMBL document CHEMBL1177736, “Isopropylidene substitution increases activity and selectivity of biphenylmethylene 4-pyridine type CYP17 inhibitors” (J Med Chem, 2010).

One assay concerns the target T1, Aromatase (Homo sapiens, UniProt P11511).
T1 sequence (P11511 whole entry): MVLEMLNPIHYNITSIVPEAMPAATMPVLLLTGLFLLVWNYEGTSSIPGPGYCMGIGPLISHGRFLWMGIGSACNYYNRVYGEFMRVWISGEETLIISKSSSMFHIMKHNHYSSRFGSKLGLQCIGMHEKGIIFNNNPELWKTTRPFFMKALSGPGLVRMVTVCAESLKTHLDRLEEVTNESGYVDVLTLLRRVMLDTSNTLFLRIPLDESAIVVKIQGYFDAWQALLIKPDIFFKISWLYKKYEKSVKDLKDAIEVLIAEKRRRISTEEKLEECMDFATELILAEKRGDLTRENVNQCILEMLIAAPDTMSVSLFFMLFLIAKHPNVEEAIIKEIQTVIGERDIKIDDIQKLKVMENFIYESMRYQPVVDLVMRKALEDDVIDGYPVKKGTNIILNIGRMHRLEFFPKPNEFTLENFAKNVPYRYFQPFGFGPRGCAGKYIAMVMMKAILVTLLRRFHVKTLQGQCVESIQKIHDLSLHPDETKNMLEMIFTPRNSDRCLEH
Briefly: Inhibition of CYP19 in human placental microsomes. Details: species or system Placenta.

The target of assay [1] is T2, Cytochrome P450 11B2, mitochondrial (Homo sapiens, UniProt P19099).
T2 sequence (P19099 whole entry): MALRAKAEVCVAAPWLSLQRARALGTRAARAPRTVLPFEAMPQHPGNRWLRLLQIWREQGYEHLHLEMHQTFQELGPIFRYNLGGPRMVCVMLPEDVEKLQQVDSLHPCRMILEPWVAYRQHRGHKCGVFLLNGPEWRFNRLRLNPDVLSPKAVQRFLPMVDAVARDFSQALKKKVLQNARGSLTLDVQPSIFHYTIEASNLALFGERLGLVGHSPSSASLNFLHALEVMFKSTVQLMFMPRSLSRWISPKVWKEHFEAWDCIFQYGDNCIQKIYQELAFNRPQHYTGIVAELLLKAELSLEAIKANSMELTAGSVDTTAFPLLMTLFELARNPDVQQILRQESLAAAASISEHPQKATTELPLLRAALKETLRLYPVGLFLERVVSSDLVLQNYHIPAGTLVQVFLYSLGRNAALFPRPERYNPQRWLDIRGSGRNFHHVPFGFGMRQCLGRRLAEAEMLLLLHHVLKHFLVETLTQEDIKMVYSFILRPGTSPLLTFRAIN
Briefly: Inhibition of human CYP11B2 expressed in hamster V79MZh cells. It is filed as cell-based.

The target in assay [2] is T3, Cytochrome P450 11B1, mitochondrial (Homo sapiens, UniProt P15538).
T3 sequence (P15538 whole entry): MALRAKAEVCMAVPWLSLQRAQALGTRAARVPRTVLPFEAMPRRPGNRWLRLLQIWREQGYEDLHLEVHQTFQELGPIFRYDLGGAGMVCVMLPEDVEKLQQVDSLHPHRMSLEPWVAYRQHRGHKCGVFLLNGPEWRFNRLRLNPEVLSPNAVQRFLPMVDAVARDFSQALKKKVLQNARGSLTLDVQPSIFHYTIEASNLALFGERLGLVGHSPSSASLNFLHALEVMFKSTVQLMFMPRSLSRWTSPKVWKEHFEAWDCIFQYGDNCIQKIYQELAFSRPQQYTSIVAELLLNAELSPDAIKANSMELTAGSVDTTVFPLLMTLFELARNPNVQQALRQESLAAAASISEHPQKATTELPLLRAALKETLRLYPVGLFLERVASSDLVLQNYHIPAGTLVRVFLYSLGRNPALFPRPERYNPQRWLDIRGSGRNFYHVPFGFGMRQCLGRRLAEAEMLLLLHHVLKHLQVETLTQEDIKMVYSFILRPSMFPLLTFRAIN
Briefly: Inhibition of human CYP11B1 expressed in hamster V79MZh cells. The assay is classed as cell-based.

Assay [3] concerns the target T4, Steroid 17-alpha-hydroxylase/17,20 lyase (Homo sapiens, UniProt P05093).
T4 sequence (P05093 whole entry): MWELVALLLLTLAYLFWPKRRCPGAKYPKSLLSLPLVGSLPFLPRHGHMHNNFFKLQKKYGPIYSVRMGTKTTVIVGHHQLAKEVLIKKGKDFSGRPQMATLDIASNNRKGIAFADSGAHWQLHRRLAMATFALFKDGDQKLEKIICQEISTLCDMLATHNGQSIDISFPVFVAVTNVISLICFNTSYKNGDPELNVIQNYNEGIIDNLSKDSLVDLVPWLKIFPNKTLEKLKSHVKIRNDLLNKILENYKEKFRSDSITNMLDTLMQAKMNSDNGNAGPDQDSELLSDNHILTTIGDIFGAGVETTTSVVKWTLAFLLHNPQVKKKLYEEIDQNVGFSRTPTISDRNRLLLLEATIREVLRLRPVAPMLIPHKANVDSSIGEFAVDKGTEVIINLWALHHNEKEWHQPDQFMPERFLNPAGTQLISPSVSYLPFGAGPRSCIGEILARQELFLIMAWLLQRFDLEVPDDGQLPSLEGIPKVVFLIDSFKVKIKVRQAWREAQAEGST
Briefly: Inhibition of human CYP17 expressed in Escherichia coli coexpressing NADPH-P450 reductase.

The target of the next assay is Cytochrome P450 3A4 (Homo sapiens, UniProt P08684). Briefly: Inhibition of CYP3A4 expressed in baculovirus infected insect microsomes. More on the design: species or system Microsome.
Sequence of Cytochrome P450 3A4 (P08684 whole entry): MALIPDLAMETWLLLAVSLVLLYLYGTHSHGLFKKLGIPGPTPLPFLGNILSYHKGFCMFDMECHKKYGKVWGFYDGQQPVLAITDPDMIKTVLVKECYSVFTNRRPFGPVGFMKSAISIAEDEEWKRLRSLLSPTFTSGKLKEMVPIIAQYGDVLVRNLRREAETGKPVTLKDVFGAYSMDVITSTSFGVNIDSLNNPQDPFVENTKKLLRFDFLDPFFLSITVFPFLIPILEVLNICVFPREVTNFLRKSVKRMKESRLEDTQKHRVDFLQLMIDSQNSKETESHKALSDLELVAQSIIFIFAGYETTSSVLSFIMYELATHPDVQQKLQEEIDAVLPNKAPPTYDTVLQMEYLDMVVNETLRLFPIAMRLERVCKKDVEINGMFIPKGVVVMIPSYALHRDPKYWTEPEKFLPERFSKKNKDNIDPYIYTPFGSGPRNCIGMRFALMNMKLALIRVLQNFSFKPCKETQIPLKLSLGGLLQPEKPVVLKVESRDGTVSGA

A word on the IC50: it is the concentration that gives 50% inhibition. Read a low IC50 as greater potency.

Each structure is given as a SMILES string.

As for `Nc1cccc(-c2ccc(Cc3ccncc3)cc2)c1`, the half-maximal inhibitory concentration (IC50) at Aromatase was determined as 2830 nM; in assay [1], 921 nM; in assay [2], 287 nM; in assay [3] it was 226 nM.
Consider `CC(C)=C(c1ccncc1)c1ccc(-c2ccc(N)c(N)c2)cc1`, for which the IC50 against Aromatase was found to be 49500 nM; in assay [1], 1130 nM; against Cytochrome P450 3A4, 1770 nM; in assay [2], 7180 nM; in assay [3], 75 nM.
In turn, `CC(C)C(c1ccncc1)c1ccc(-c2cccc(O)c2)cc1` (stereo unspecified) returned an IC50 in assay [3] of 783 nM.
As for `Oc1ccc(-c2ccc(Cc3ccncc3)cc2)cc1O`, the IC50 was 2440 nM on Aromatase; 948 nM in assay [1]; 7580 nM at Cytochrome P450 3A4; 1400 nM in assay [2]; 52 nM in assay [3].
Regarding `CC(C)=C(c1ccncc1)c1ccc(-c2ccc3cc(O)ccc3c2)cc1`, the IC50 on Aromatase was determined as 48700 nM; in assay [1], 49500 nM; in assay [2] it was 5060 nM; in assay [3], 62 nM.
For the compound `CC(C)=C(c1ccncc1)c1ccc(-c2ccc(O)c(O)c2)cc1`, the IC50 at Aromatase turned out to be 9500 nM; in assay [1] it was 974 nM; at Cytochrome P450 3A4, 464 nM; in assay [2] it was 37500 nM; in assay [3], 37 nM.
For `Oc1cccc(-c2ccc(Cc3ccncc3)cc2)c1`, the half-inhibitory concentration (IC50) against Aromatase is 663 nM; in assay [1] it was 261 nM; on Cytochrome P450 3A4, 538 nM; in assay [2], 342 nM.
Consider `CCC(c1ccncc1)c1ccc(-c2cccc(O)c2)cc1` (stereo unspecified), for which the IC50 in assay [3] stood at 189 nM. This counts as sub-micromolar.
Regarding `CC(C)=C(c1ccncc1)c1ccc(-c2cccc(O)c2)cc1`, the IC50 against Aromatase was 12000 nM; in assay [1], 3450 nM; on Cytochrome P450 3A4, 730 nM; in assay [2], 3100 nM; in assay [3], 56 nM.
Take `Oc1ccc(-c2ccc(Cc3ccncc3)cc2)cc1F`: the half-inhibitory concentration (IC50) came to 1670 nM on Aromatase; 110 nM in assay [1]; 896 nM on Cytochrome P450 3A4; 351 nM in assay [2]; 186 nM in assay [3].
For `CCC(c1ccncc1)c1ccc(-c2ccc(O)c(F)c2)cc1` (stereo unspecified), in assay [3], the concentration for half-maximal inhibition (IC50) was found to be 343 nM.
`CC(C)=C(c1ccncc1)c1ccc(-c2cccc(N)c2)cc1`: the half-inhibitory concentration (IC50) against Aromatase came to 5060 nM; in assay [1], 3830 nM; at Cytochrome P450 3A4, 1330 nM; in assay [2], 7300 nM; in assay [3] it was 38 nM.
In the case of `Nc1ccc(-c2ccc(Cc3ccncc3)cc2)cc1N`, the IC50 stood at 24600 nM at Aromatase, 368 nM in assay [1], 502 nM in assay [2] and 337 nM in assay [3].
`CC(C)=C(c1ccncc1)c1ccc(-c2ccc(O)c(F)c2)cc1`: the IC50 was found to be 5750 nM at Aromatase; 1870 nM in assay [1]; 17600 nM at Cytochrome P450 3A4; 2000 nM in assay [2]; 75 nM in assay [3].
In turn, `CC(C)=C(c1ccncc1)c1ccc(-c2cccc(NC(=O)OC(C)(C)C)c2)cc1` had an IC50 in assay [3] of 1460 nM.
In turn, `CC(C)=C(c1ccncc1)c1ccc(-c2ccc(NC(=O)OC(C)(C)C)cc2)cc1` came in with an IC50 in assay [3] of 493 nM. Against the preceding compound, the IC50 is about 3-fold lower.
Regarding `CC(C)=C(c1ccncc1)c1ccc(-c2ccc(NC(=O)OC(C)(C)C)c(F)c2)cc1`, 852 nM corresponded to half-maximal inhibition in assay [3] (IC50).
For the compound `CC(C)=C(c1ccncc1)c1ccc(-c2ccc(NC(=O)OC(C)(C)C)c(NC(=O)OC(C)(C)C)c2)cc1`, the IC50 in assay [3] is above 10000 nM.
Consider `C[C@]12CC[C@H](O)CC1=CC[C@@H]1[C@@H]2CC[C@]2(C)C(c3cccnc3)=CC[C@@H]12` [ABIRATERONE], for which the IC50 against Aromatase is above 50000 nM; in assay [1], 1750 nM; in assay [2], 1610 nM.
